Test system: P12-Ichikawa
Assay: cell viability relative to DMSO control; higher = less cytotoxic
Settings: 48 h
Summary of the method: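 Before seeding, each leukemia line was adapted for at least four passages in each medium. NOMO1 or SEM cells (500 cells/well) and P12-Ichikawa cells (1000 cells/well) went into 1536-well plates at 5 μl, then received library compounds in DMSO by pin dosing across 11 threefold concentrations, 47 μM to 0.79 nM. Readout was CellTiter-Glo One luminescence after 48 h at 37°C, and viability is given as a per-plate percentage of DMSO wells, with cell-free wells as background.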

[1] = HPLM + 10% dialyzed FBS, 0.000781 µM
[2] = HPLM + 10% dialyzed FBS, 0.00234 µM
[3] = HPLM + 10% dialyzed FBS, 0.00702 µM
[4] = HPLM + 10% dialyzed FBS, 0.0211 µM
[5] = HPLM + 10% dialyzed FBS, 0.0632 µM
[6] = HPLM + 10% dialyzed FBS, 0.19 µM
[7] = HPLM + 10% dialyzed FBS, 0.569 µM
[8] = HPLM + 10% dialyzed FBS, 1.71 µM
[9] = HPLM + 10% dialyzed FBS, 5.12 µM
[10] = HPLM + 10% dialyzed FBS, 15.4 µM
[11] = HPLM + 10% dialyzed FBS, 46.1 µM
[12] = RPMI 5 mM glucose + 10% FBS, 0.000781 µM
[13] = RPMI 5 mM glucose + 10% FBS, 0.00234 µM
[14] = RPMI 5 mM glucose + 10% FBS, 0.00702 µM
[15] = RPMI 5 mM glucose + 10% FBS, 0.0211 µM
[16] = RPMI 5 mM glucose + 10% FBS, 0.0632 µM
[17] = RPMI 5 mM glucose + 10% FBS, 0.19 µM
[18] = RPMI 5 mM glucose + 10% FBS, 0.569 µM
[19] = RPMI 5 mM glucose + 10% FBS, 1.71 µM
[20] = RPMI 5 mM glucose + 10% FBS, 5.12 µM
[21] = RPMI 5 mM glucose + 10% FBS, 15.4 µM
[22] = RPMI 5 mM glucose + 10% FBS, 46.1 µM
[23] = RPMI 5 mM glucose + 10% dialyzed FBS, 0.000781 µM
[24] = RPMI 5 mM glucose + 10% dialyzed FBS, 0.00234 µM
[25] = RPMI 5 mM glucose + 10% dialyzed FBS, 0.00702 µM
[26] = RPMI 5 mM glucose + 10% dialyzed FBS, 0.0211 µM
[27] = RPMI 5 mM glucose + 10% dialyzed FBS, 0.0632 µM
[28] = RPMI 5 mM glucose + 10% dialyzed FBS, 0.19 µM
[29] = RPMI 5 mM glucose + 10% dialyzed FBS, 0.569 µM
[30] = RPMI 5 mM glucose + 10% dialyzed FBS, 1.71 µM
[31] = RPMI 5 mM glucose + 10% dialyzed FBS, 5.12 µM
[32] = RPMI 5 mM glucose + 10% dialyzed FBS, 15.4 µM
[33] = RPMI 5 mM glucose + 10% dialyzed FBS, 46.1 µM

SMILES | cell viability [1] | cell viability [2] | cell viability [3] | cell viability [4] | cell viability [5] | cell viability [6] | cell viability [7] | cell viability [8] | cell viability [9] | cell viability [10] | cell viability [11] | cell viability [12] | cell viability [13] | cell viability [14] | cell viability [15] | cell viability [16] | cell viability [17] | cell viability [18] | cell viability [19] | cell viability [20] | cell viability [21] | cell viability [22] | cell viability [23] | cell viability [24] | cell viability [25] | cell viability [26] | cell viability [27] | cell viability [28] | cell viability [29] | cell viability [30] | cell viability [31] | cell viability [32] | cell viability [33]
COC1=C(CC=C(C)C)C2=C(\C=C/C(=O)O2)C=C1 | 84.2% | 109% | 126% | 121% | 110% | 114% | 97.7% | 87.5% | 69.8% | 65.7% | 58.8% | 96.9% | 96.6% | 116% | 116% | 106% | 104% | 107% | 105% | 80.1% | 81.9% | 54.7% | 101% | 123% | 109% | 112% | 112% | 109% | 98.1% | 92.4% | 75.2% | 76.3% | 55.7%
O=C(Nc1cccc2c(=O)cc(-c3nnn[nH]3)oc12)c1ccc(OCCCCc2ccccc2)cc1 | 86.7% | 84.2% | 90.4% | 93.9% | 101% | 94.8% | 90% | 96% | 96.9% | 101% | 15.5% | 81% | 84.9% | 99.9% | 91.8% | 95.7% | 89.4% | 88.9% | 91% | 87.6% | 80% | 54.6% | 73.1% | 80.4% | 87% | 88.7% | 86.7% | 92.5% | 85.1% | 81.6% | 85.5% | 85.4% | 21.7%
C=C1C(=O)O[C@@H]2[C@H]3O[C@]3(C)CC/C=C(\C)CC[C@@H]12 | 106% | 104% | 114% | 114% | 119% | 124% | 122% | 79.6% | 5.39% | 2.97% | 2.95% | 103% | 109% | 117% | 117% | 127% | 127% | 125% | 101% | 13.5% | 3.52% | 2.86% | 105% | 112% | 118% | 125% | 127% | 123% | 121% | 91.8% | 5.63% | 2.98% | 2.57%
O=C(O)C(=O)Nc1cccc(-c2nnn[nH]2)c1 | 101% | 94.9% | 103% | 108% | 108% | 106% | 105% | 106% | 112% | 112% | 111% | 109% | 111% | 106% | 112% | 126% | 107% | 113% | 114% | 108% | 116% | 107% | 100% | 105% | 106% | 108% | 107% | 106% | 100% | 105% | 98.4% | 105% | 102%
O=P1(NCCCl)OCCCN1CCCl (stereo not drawn) | 84% | 94% | 88.4% | 91.6% | 92.9% | 88.1% | 95.1% | 93.9% | 91.8% | 62.5% | 94.2% | 82.8% | 76.7% | 81.5% | 85.6% | 88.8% | 86.7% | 87.9% | 86.1% | 92% | 93.2% | 66.7% | 77% | 77.2% | 75.3% | 78.1% | 84.8% | 82.7% | 85.9% | 85.2% | 87.2% | 87% | 79.8%
N#C[C@@H]1C[C@@H]2C[C@@H]2N1C(=O)[C@@H](N)C12CC3CC(CC(O)(C3)C1)C2 | 121% | 123% | 115% | 122% | 122% | 114% | 122% | 110% | 109% | 110% | 108% | 132% | 123% | 120% | 120% | 116% | 123% | 128% | 107% | 111% | 110% | 97.6% | 122% | 128% | 121% | 118% | 124% | 114% | 121% | 123% | 112% | 111% | 108%
c1cc(N[C@@H]2CCNC2)nc(-c2cnc3ccc(-c4cn[nH]c4)cn23)c1 | 116% | 121% | 122% | 123% | 131% | 130% | 135% | 136% | 132% | 120% | 104% | – | – | – | – | – | – | – | – | – | – | – | – | – | – | – | – | – | – | – | – | – | –
N[S+](=O)([O-])c1cc2c(cc1Cl)NCN[S+]2(=O)[O-] | 94.4% | 103% | 104% | 110% | 112% | 116% | 116% | 113% | 111% | 110% | 104% | 111% | 115% | 110% | 125% | 118% | 126% | 126% | 121% | 108% | 118% | 120% | 110% | 106% | 108% | 105% | 116% | 105% | 111% | 116% | 118% | 107% | 104%
O=C(O)CCc1ccc(NCc2cccc(Oc3ccccc3)c2)cc1 | 94.5% | 107% | 102% | 104% | 105% | 111% | 108% | 109% | 108% | 119% | 104% | 99.3% | 105% | 111% | 105% | 118% | 111% | 109% | 109% | 110% | 122% | 118% | 88.6% | 96.5% | 103% | 110% | 103% | 104% | 103% | 104% | 100% | 98.6% | 99.9%
CNCCN(C)Cc1c[nH]nc1-c1ccc(O[C@H]2C[C@H](OCCC3CCOCC3)C2)cc1 | 104% | 120% | 124% | 119% | 122% | 122% | 135% | 123% | 95.1% | 90.1% | 118% | – | – | – | – | – | – | – | – | – | – | – | – | – | – | – | – | – | – | – | – | – | –
CC[P](CC)(CC)=[Au][S][C@@H]1O[C@H](COC(C)=O)[C@@H](OC(C)=O)[C@H](OC(C)=O)[C@H]1OC(C)=O | 122% | 108% | 116% | 109% | 115% | 105% | 110% | 77.2% | 23% | 2.24% | 1.8% | 104% | 119% | 112% | 123% | 115% | 103% | 109% | 9.37% | 2.79% | 2.08% | 1.61% | 117% | 111% | 117% | 117% | 114% | 105% | 96.3% | 3.62% | 2.8% | – | 1.1%
COc1ccc(CC2SC(=O)NC2=O)cc1C(=O)NCc1ccc(C(F)(F)F)cc1 (stereo not drawn) | 85.3% | 84.7% | 90.5% | 96% | 88.3% | 96.3% | 93.8% | 95% | 88.2% | 83.6% | 86.9% | 82.1% | 78.3% | 81% | 87% | 78.9% | 83.7% | 94.5% | 89.2% | 86.4% | 77.2% | 66.7% | 79.5% | 82.5% | 81.7% | 71.5% | 74.3% | 74.2% | 80.2% | 75.1% | 74.9% | 69.3% | 63.6%
COc1cc([C@@H]2c3cc4c(cc3[C@H](O)[C@H]3COC(=O)[C@H]23)OCO4)cc(OC)c1OC | 87.8% | 39.1% | 12.4% | 7.37% | 7% | 8.5% | 7.63% | 8.21% | 6.81% | 5.69% | 2.44% | 84.9% | 45.4% | 15.6% | 9.29% | 7.32% | 7.35% | 6.22% | 5.7% | 5.67% | 4.24% | 1.48% | 84% | 41.4% | 19.7% | 11.7% | 6.34% | 8.83% | 7.96% | 7.78% | 7.21% | 5.34% | 2.45%
CCC[S+](=O)([O-])Nc1ccc(F)c(C(=O)c2c[nH]c3ncc(-c4ccc(Cl)cc4)cc23)c1F | 116% | 110% | 107% | 115% | 114% | 107% | 108% | 105% | 99.9% | 98.5% | 93.5% | 116% | 109% | 117% | 110% | 118% | 110% | 99.1% | 110% | 108% | 96.4% | 98.2% | 124% | 120% | 122% | 120% | 125% | 120% | 113% | 107% | 108% | 103% | 95.2%
CC1(C)NC(=O)N(c2ccc([N+](=O)[O-])c(C(F)(F)F)c2)C1=O | 96.1% | 87.3% | 90.1% | 89.5% | 101% | 90.9% | 89.6% | 87.8% | 77.1% | 85.2% | 80% | 88.4% | 82.8% | 82.5% | 95.2% | 96.2% | 92% | 90.1% | 74.9% | 82.8% | 82.9% | 75.8% | 77.6% | 81% | 75.6% | 80% | 83.4% | 85.7% | 78.4% | 77.2% | 70.7% | 75% | 67.8%
OC[C@H]1O[C@H](C[C@@H]1O)N2\C=C(\I)C(=O)NC2=O | 113% | 114% | 120% | 118% | 115% | 124% | 119% | 115% | 98.2% | 64.4% | 58.3% | 110% | 114% | 124% | 121% | 129% | 128% | 132% | 123% | 115% | 106% | 96.7% | 118% | 114% | 108% | 119% | 114% | 131% | 127% | 115% | 114% | 114% | 110%

Reference: the supplement of paper PMC11451515
